“Also recorded” adds a separate entry of the source.
What was measured:
[1] = system: NFκB-DNA binding activity; experiment: NFκB-DNA binding by electrophoretic mobility shift assay (EMSA); format: in vivo; settings: prior application of Lupeol to mouse skin
Method: (b) At different times after treatment, the animals were sacrificed, nuclear lysates were prepared, and DNA binding was determined by […] as described under ‘Materials and Methods’. C1, C2, and C3 refer to inter experimental controls, where C1 represents biotin-EBNA (epistein barr virus nuclear antigen) control DNA, C2 represents Biotin-EBNA control DNA and EBNA extract and C3 represents Biotin-EBNA control DNA and EBNA extract plus 200 fold molar excess of EBNA DNA.
Epidermis from the whole skin was separated as described earlier (Katiyar et al., 1999) and was homogenized in ice-cold lysis buffer [50 mM Tris-HCl, 150 mM NaCl, 1 mM EGTA, 1 mM EDTA, 20 mM NaF, 100 mM Na3VO4, 0.5% NP-40, 1% Triton X-100, 1 mM PMSF (pH 7.4)] with freshly added protease inhibitor cocktail, Protease Inhibitor Cocktail Set III (Calbiochem, La Jolla, Calif., USA). […] The protein content in the lysates was measured by DC BioRad assay (BioRad Laboratories, Hercules, Calif.) as per the manufacturer's protocol.
EMSA for NFκB was performed using Lightshift™ chemiluminescent EMSA kit (Pierce, Rockford, Ill., USA) by following the manufacturer's protocol. […] The biotin end-labeled DNA was detected using streptavidin-horseradish peroxidase conjugate and a chemiluminescent substrate. […]

[2] = system: PARP, Bax, Bcl-2 in AsPC-1 cells; experiment: PARP cleavage and Bax, Bcl-2 expression in AsPC-1 cells; format: cell-based
Description: FIG. 22 depicts effect of Lupeol treatment on PARP cleavage and on protein expression of Bax, Bcl-2 in AsPC-1 cells.

[3] = system: mouse ear; settings: Nikiema et al., 2001; cited from earlier work
[4] = system: PARP, acinus, Bcl2, Bax, Caspase 7 in LNCaP cells; experiment: PARP cleavage and apoptosis protein expression in LNCaP cells (western blot); format: cell-based, human
Method: FIG. 12 depicts effect of Lupeol treatment on PARP cleavage and on protein expression of acinus, in LNCaP cells. Cells were treated with specified concentrations of Lupeol for 48 h, harvested and total cell lysates were prepared. PARP cleavage and the expression of acinus, were determined by western blot analysis. Equal loading was confirmed by stripping immunoblots and reprobing them for β-actin. The immunoblots shown here are representative of three independent experiments with similar results.

[5] = system: pro-caspases-8 and -9 in LNCaP cells; experiment: Pro-caspases-8 and -9 expression in LNCaP cells (western blot); format: cell-based, human
Method: FIG. 13 depicts effect of Lupeol treatment on protein expression of pro-caspases-8 and -9 in LNCaP cells. Cells were treated with only specified concentrations of Lupeol for 48 h, harvested and total cell lysates were prepared. Expression of pro-caspases-8 and -9 were determined by western blot analysis. Equal loading was confirmed by stripping immunoblots and reprobing them for β-actin. The immunoblots shown here are representative of three independent experiments with similar results.

[6] = system: LNCaP cells; experiment: Apoptosis in LNCaP cells by flow cytometry; format: cell-based, human; settings: Lupeol 5-30 μM
Method: FIG. 11 depicts quantitative representation of Lupeol induced apoptosis in LNCaP cells as assessed by flow cytometry. Cells were treated with Lupeol (5-30 μM). Cells showing fluorescence above that of control population, as indicated by the line in each histogram, are considered as apoptotic cells. The images shown here are representative of independent experiments with similar results. The values shown inside each graph indicates percent apoptotic cells.

C=C(C)[C@@H]1CC[C@]2(C)CC[C@]3(C)[C@H](CC[C@@H]4[C@@]5(C)CC[C@H](O)C(C)(C)[C@@H]5CC[C@]43C)[C@@H]12 [Lupeol, Lup-20(29)-en-3β-ol]
TPA-induced epidermal NFκB DNA binding activity [1]: significantly inhibited
expression level of anti-apoptotic protein Bcl-2 [2]: no change was observed
Bax protein expression ([2]; 48 hours): increased Bax protein expression
cleavage of PARP ([2]; 48 hours): induced cleavage of PARP
protection against croton oil induced edema in mouse ear [3]: more efficacy than indomethacin
Bcl2, Bax and Caspase 7 protein expression [4]: no change
cleavage of PARP and Acinus protein ([4]; 48 hours): induce the cleavage of PARP protein and degradation of Acinus protein; also recorded: induced cleavage of PARP and Acinus protein
activation of Caspase-8 and 9 proteins [5]: induces the activation
expression of inactive (pro-) caspases-8 and -9 ([5]; 48 h): causes disappearance of inactive caspases
induction of apoptosis in LNCaP cells [6]: due to apoptosis; also recorded: inducing apoptosis

— patent publication US8618082B2, “Lupeol anti-tumor agent and uses thereof” (Wisconsin Alumni Research Foundation, priority 2004, dated 2013)
